± gives the standard deviation of the averaged measurements.
Key:
Test in all cases: normalised percent inhibition of luminescence (vs positive and negative controls); higher = stronger inhibition
[1] = tested on: firefly luciferase (FLuc)
Description: (§1)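 Concentration-response (>=11 concentrations) of metal salts on purified FLuc, NLuc or RLuc luminescence in screening (SC) or 100 mM HEPES (H) buffer; salt pre-incubated with enzyme 10 min at RT, read 10 min after substrate. Normalised percent inhibition vs plate positive (PTC-124, isradipine, BTS) and DMSO negative controls; triplicate wells.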

[2] = tested on: Renilla luciferase (RLuc)
Description: as §1

[3] = tested on: NanoLuc luciferase (NLuc)
Description: as §1

O=[N+]([O-])[O-].[Ag+] [silver nitrate]
normalised percent inhibition [%]
Conditions | [1] | [2] | [3]
metal salt concentration 1.56 nM, screening conditions buffer | -3.5 ± 6 | – | –
metal salt concentration 3.13 nM, screening conditions buffer | 8.07 ± 5.3 | – | –
metal salt concentration 6.25 nM, screening conditions buffer | -11.6 ± 7.4 | – | –
metal salt concentration 12.5 nM, screening conditions buffer | 2.67 ± 4.2 | – | –
metal salt concentration 25 nM, screening conditions buffer | -5.14 ± 3.2 | – | –
metal salt concentration 50 nM, screening conditions buffer | 1.37 ± 6.6 | – | –
metal salt concentration 0.0001 mM, 100 mM HEPES buffer | 98 ± 2.2 | 2.89 ± 12 | 1.65 ± 1.5
metal salt concentration 0.0001 mM, screening conditions buffer | 0.486 ± 5.2 | – | –
metal salt concentration 0.00025 mM, 100 mM HEPES buffer | 100.3 ± 0.19 | -2.96 ± 23 | -1.44 ± 2.1
metal salt concentration 0.00025 mM, screening conditions buffer | 54.3 ± 6.3 | – | –
metal salt concentration 0.0005 mM, 100 mM HEPES buffer | 99.84 ± 0.56 | -1.85 ± 16 | -1.42 ± 4.4
metal salt concentration 0.0005 mM, screening conditions buffer | 100.1 ± 0.16 | – | –
metal salt concentration 0.001 mM, 100 mM HEPES buffer | 100.3 ± 0.19 | -11.8 ± 14 | 2.97 ± 6.6
metal salt concentration 0.001 mM, screening conditions buffer | 100.19 ± 0.055 | – | –
metal salt concentration 0.002 mM, screening conditions buffer | 100.6 ± 0.14 | 10.7 ± 8.6 | 20.8 ± 3.6
metal salt concentration 0.005 mM, screening conditions buffer | 100.7 ± 0.58 | 8.28 ± 9.9 | 80.1 ± 3.5
metal salt concentration 0.01 mM, 100 mM HEPES buffer | – | -3.09 ± 29 | –
metal salt concentration 0.01 mM, screening conditions buffer | 100.4 ± 0.49 | 13 ± 3.1 | 88 ± 46
metal salt concentration 0.02 mM, 100 mM HEPES buffer | – | -4.38 ± 18 | –
metal salt concentration 0.02 mM, screening conditions buffer | 100.7 ± 0.22 | 14.2 ± 12 | 107 ± 28
metal salt concentration 0.025 mM, 100 mM HEPES buffer | 100.4 ± 0.49 | 84.8 ± 8.2 | 99.59 ± 0.3
metal salt concentration 0.04 mM, 100 mM HEPES buffer | – | 47.3 ± 12 | –
metal salt concentration 0.05 mM, 100 mM HEPES buffer | 100.3 ± 0.68 | 104 ± 3.7 | 51.4 ± 54
metal salt concentration 0.05 mM, screening conditions buffer | 99.8 ± 1.4 | 38.8 ± 7.9 | 118 ± 17
metal salt concentration 0.1 mM, 100 mM HEPES buffer | 100.6 ± 0.19 | 107 ± 1.2 | 100.8 ± 0.22
metal salt concentration 0.1 mM, screening conditions buffer | – | 81.2 ± 3.3 | 119 ± 17
metal salt concentration 0.2 mM, screening conditions buffer | – | 101 ± 3.2 | 133.6 ± 0.46
metal salt concentration 0.5 mM, 100 mM HEPES buffer | 100 ± 0.68 | 106 ± 1.4 | 101.7 ± 0.27
metal salt concentration 0.5 mM, screening conditions buffer | – | 105.9 ± 0.6 | 119 ± 16
metal salt concentration 1 mM, 100 mM HEPES buffer | 99.8 ± 1.1 | 106 ± 1.3 | 101.7 ± 0.68
metal salt concentration 1 mM, screening conditions buffer | – | 105.9 ± 0.36 | 120 ± 16
metal salt concentration 2.5 mM, 100 mM HEPES buffer | 100.4 ± 0.49 | 106.7 ± 0.43 | 101.97 ± 0.092
metal salt concentration 2.5 mM, screening conditions buffer | – | 106.2 ± 0.36 | 134.8 ± 0.48
metal salt concentration 5 mM, 100 mM HEPES buffer | 100.5 ± 0.56 | 106 ± 1.5 | 102 ± 0.14
metal salt concentration 5 mM, screening conditions buffer | – | 106.1 ± 0.41 | 135.3 ± 0.097

CC#N.CC#N.CC#N.CC#N.F[B-](F)(F)F.[Cu+] [tetrakis(acetonitrile)copper(I) tetrafluoroborate]
normalised percent inhibition [%]
Conditions | [1] | [2] | [3]
metal salt concentration 15.6 nM, 100 mM HEPES buffer | 31.6 ± 5.6 | – | –
metal salt concentration 31.25 nM, 100 mM HEPES buffer | 19.4 ± 5.8 | – | –
metal salt concentration 62.5 nM, 100 mM HEPES buffer | 94.7 ± 2.4 | – | –
metal salt concentration 0.0001 mM, 100 mM HEPES buffer | 98.82 ± 0.68 | -13.8 ± 1.9 | 2.08 ± 2.5
metal salt concentration 0.000125 mM, 100 mM HEPES buffer | 99.64 ± 0.61 | – | –
metal salt concentration 0.00025 mM, 100 mM HEPES buffer | 99.92 ± 0.95 | 12.4 ± 25 | -0.342 ± 1.6
metal salt concentration 0.0005 mM, 100 mM HEPES buffer | 100.6 ± 0.27 | -2.77 ± 18 | 3.53 ± 1.5
metal salt concentration 0.0005 mM, screening conditions buffer | 19.7 ± 6.5 | – | –
metal salt concentration 0.001 mM, 100 mM HEPES buffer | 100.1 ± 0.47 | -10.8 ± 24 | 4.37 ± 2.7
metal salt concentration 0.001 mM, screening conditions buffer | -12.4 ± 12 | – | –
metal salt concentration 0.002 mM, screening conditions buffer | 6.86 ± 16 | 12.9 ± 12 | 0.453 ± 3.1
metal salt concentration 0.005 mM, screening conditions buffer | 13.5 ± 18 | 16.7 ± 4.2 | 0.553 ± 5.7
metal salt concentration 0.01 mM, screening conditions buffer | 8.64 ± 11 | 11.3 ± 1.8 | 1.88 ± 5.3
metal salt concentration 0.02 mM, screening conditions buffer | 7.18 ± 12 | 2.75 ± 5 | 9.53 ± 10
metal salt concentration 0.025 mM, 100 mM HEPES buffer | 100.5 ± 0.33 | 75.8 ± 10 | 5.84 ± 3.1
metal salt concentration 0.025 mM, screening conditions buffer | 20.1 ± 6.7 | – | –
metal salt concentration 0.05 mM, 100 mM HEPES buffer | 100.3 ± 0.32 | 102 ± 4 | 40.1 ± 16
metal salt concentration 0.05 mM, screening conditions buffer | 3.96 ± 21 | 13.4 ± 7.8 | 91.9 ± 19
metal salt concentration 0.1 mM, 100 mM HEPES buffer | 100.5 ± 0.28 | 105 ± 1.1 | 92.9 ± 4.2
metal salt concentration 0.1 mM, screening conditions buffer | 24.1 ± 11 | 9.12 ± 4.9 | 158 ± 2.2
metal salt concentration 0.2 mM, screening conditions buffer | 31.5 ± 16 | 3.41 ± 2.5 | 158.7 ± 0.69
metal salt concentration 0.25 mM, 100 mM HEPES buffer | 100.3 ± 0.23 | – | –
metal salt concentration 0.5 mM, 100 mM HEPES buffer | 100.5 ± 0.16 | 106 ± 2.8 | 101.8 ± 0.16
metal salt concentration 0.5 mM, screening conditions buffer | 56.9 ± 11 | 106.2 ± 0.25 | 160 ± 0.71
metal salt concentration 1 mM, 100 mM HEPES buffer | 100.3 ± 0.63 | 107.5 ± 0.97 | 101.8 ± 0.24
metal salt concentration 1 mM, screening conditions buffer | 99.7 ± 1.5 | 106.7 ± 0.13 | 159.9 ± 0.92
metal salt concentration 2.5 mM, 100 mM HEPES buffer | 100.5 ± 0.31 | 106 ± 1.7 | 101.9 ± 0.13
metal salt concentration 2.5 mM, screening conditions buffer | 100.3 ± 0.32 | 106.6 ± 0.25 | 161.2 ± 0.41
metal salt concentration 5 mM, 100 mM HEPES buffer | 100.3 ± 0.16 | 107 ± 1.7 | 101.9 ± 0.11
metal salt concentration 5 mM, screening conditions buffer | 100.4 ± 0.4 | 106.5 ± 0.51 | 161.65 ± 0.13
metal salt concentration 10 mM, screening conditions buffer | 100.1 ± 0.14 | – | –
metal salt concentration 20 mM, screening conditions buffer | 100.2 ± 0.38 | – | –

— the supplement of paper PMC11628255, “Interference of metal ions on the bioluminescent signal of firefly, Renilla, and NanoLuc luciferases in high-throughput screening assays” (Frontiers in Chemistry, 2024)
